Experimental data as given in patent US11098055B2, “Ester ACC inhibitors and uses thereof” (Gilead Apollo, LLC, priority 2015, dated 2021).
In brackets after ≈: the same amount, converted by molar mass.

Assays:
C. albicans ATCC 90028 = assay: Anti-Fungal (Candida) Activity Assay, broth microtiter MIC; type: cell-based; details: ATCC90028, 48 h, 3 replicates, MIC read at 48 h
Summary of the method: (§1)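 Broth microdilution per CLSI M27-A3 in RPMI 1640 + MOPS, at a final inoculum of 2.5×10^3 CFU/mL. Compound DMSO stocks were diluted in water to a 128 μg/mL working solution. MIC was read visually against the growth control at 48 h.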

[1] = system: C. parapsilosis ATCC 22019; assay: as above; type: cell-based; details: Lodderomyces parapsilosis, ATCC22019, 48 h, 3 replicates, MIC read at 48 h
Summary of the method: as §1

C. krusei ATCC 6258 = assay: as above; type: cell-based, Candida krusei; details: Pichia kudriavzevii, ATCC6258, 48 h, 3 replicates, MIC read at 48 h
Summary of the method: as §1

hACC2 = hACC2 (Homo sapiens, UniProt O00763); assay: In vitro ACC2 inhibition assay (ADP-Glo), human ACC2; type: biochemical
Summary of the method: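 ADP-Glo luminescent ADP detection with 5 nM ACC2, 20 μM ATP, 20 μM acetyl-CoA, 12 mM NaHCO3, 2 mM DTT, 5% DMSO; compound (30 μM-0.00051 μM, 11 points) preincubated 15 min, reaction 60 min at room temperature. Percent inhibition against DMSO and positive controls; IC50 by four-parameter nonlinear fit.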

hACC2, sequence (O00763 whole entry): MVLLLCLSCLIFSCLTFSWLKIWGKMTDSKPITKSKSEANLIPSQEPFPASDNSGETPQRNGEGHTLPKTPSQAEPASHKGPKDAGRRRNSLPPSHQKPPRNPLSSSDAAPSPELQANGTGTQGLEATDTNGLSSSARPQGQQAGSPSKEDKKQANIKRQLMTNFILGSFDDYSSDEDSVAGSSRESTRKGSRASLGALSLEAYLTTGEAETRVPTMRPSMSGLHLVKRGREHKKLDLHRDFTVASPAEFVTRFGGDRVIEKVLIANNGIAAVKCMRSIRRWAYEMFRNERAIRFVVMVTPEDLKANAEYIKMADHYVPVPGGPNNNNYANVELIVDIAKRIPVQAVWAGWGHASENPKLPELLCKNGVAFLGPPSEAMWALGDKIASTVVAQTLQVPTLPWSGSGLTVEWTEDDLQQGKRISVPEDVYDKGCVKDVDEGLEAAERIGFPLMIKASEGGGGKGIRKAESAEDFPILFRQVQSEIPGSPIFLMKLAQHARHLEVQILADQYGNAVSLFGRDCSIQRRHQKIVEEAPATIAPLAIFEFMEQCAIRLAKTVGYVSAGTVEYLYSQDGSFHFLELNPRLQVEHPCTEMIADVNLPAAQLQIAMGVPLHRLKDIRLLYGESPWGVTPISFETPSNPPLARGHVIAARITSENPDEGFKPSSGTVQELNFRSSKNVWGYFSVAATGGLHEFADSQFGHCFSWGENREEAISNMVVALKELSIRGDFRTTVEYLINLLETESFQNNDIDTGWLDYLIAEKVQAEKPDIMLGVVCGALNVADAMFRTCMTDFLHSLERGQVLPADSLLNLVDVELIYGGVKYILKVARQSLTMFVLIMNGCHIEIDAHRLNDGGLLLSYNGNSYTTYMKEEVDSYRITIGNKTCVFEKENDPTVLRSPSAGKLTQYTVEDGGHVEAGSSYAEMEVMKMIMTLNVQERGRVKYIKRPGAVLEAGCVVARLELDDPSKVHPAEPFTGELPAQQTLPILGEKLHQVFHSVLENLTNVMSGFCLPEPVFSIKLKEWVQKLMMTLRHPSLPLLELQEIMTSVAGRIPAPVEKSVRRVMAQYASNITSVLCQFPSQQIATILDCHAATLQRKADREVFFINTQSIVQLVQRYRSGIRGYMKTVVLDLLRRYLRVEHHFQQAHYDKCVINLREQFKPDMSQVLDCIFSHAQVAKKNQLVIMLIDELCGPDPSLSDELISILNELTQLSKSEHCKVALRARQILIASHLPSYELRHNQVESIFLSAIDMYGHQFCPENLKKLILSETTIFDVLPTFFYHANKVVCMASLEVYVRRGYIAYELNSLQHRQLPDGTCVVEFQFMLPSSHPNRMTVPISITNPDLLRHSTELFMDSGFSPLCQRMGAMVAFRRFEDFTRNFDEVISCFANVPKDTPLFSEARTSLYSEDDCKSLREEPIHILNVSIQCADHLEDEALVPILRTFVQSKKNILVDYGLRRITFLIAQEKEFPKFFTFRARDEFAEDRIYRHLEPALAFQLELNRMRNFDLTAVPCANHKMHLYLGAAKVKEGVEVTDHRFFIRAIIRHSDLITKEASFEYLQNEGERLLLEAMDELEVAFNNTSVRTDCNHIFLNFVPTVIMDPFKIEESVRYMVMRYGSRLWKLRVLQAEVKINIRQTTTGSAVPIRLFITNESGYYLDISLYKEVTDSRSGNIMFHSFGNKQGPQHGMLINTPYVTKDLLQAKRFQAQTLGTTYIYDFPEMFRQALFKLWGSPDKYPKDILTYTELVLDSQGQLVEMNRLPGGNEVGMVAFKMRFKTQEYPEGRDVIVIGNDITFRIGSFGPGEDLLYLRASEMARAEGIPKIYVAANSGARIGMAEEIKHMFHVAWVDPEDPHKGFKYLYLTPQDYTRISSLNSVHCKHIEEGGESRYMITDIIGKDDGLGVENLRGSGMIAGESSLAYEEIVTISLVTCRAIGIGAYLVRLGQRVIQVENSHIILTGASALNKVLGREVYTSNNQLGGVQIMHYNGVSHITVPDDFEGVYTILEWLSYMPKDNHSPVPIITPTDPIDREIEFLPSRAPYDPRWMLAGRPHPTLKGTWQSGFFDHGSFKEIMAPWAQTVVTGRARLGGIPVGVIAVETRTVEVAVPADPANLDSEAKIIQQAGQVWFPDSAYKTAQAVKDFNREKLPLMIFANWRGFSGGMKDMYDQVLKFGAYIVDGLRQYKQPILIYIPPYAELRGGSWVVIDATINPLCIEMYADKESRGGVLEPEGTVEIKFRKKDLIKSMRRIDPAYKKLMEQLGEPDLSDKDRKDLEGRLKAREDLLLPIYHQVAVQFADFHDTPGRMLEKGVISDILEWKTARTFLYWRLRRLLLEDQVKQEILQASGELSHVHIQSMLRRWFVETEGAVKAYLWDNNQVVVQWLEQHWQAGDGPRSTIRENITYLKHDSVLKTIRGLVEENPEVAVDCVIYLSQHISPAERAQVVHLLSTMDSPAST

SMILES	MIC (C. albicans ATCC 90028; Table 3a) [µg/mL]	MIC (C. albicans ATCC 90028; Table 3b (additional results)) [µg/mL]	MIC ([1]; Table 3a) [µg/mL]	MIC ([1]; Table 3b (additional results)) [µg/mL]	MIC (C. krusei ATCC 6258; Table 3a) [µg/mL]	MIC (C. krusei ATCC 6258; Table 3b (additional results)) [µg/mL]	IC50 (hACC2; Table 2a) [nM]	IC50 (hACC2; Table 2b (additional results)) [nM]
CCNC(=O)C(C)(C)n1c(=O)c2c(C)c(C(=O)OCC)sc2n(C[C@H](OC(C)C)c2ccccc2OC)c1=O [Compound I-4, (R)-ethyl 3-(1-(ethylamino)-2-methyl-1-oxopropan-2-yl)-1-(2-isopropoxy-2-(2-methoxyphenyl)ethyl)-5-methyl-2,4-dioxo-1,2,3,4-tetrahydrothieno[2,3-d]pyrimidine-6-carboxylate]	2.1 to 4 (≈ 3.75 to 7.15 µM)	2.1 to 4 (≈ 3.75 to 7.15 µM)	> 4.1	2.1 to 4 (≈ 3.75 to 7.15 µM)	2.1 to 4 (≈ 3.75 to 7.15 µM)	2.1 to 4 (≈ 3.75 to 7.15 µM)	10 to 40	10 to 40
CCOC(=O)c1sc2c(c1C)c(=O)n(C(C)(C)C(=O)NC(C)C)c(=O)n2CCc1cc(F)ccc1OC [Compound I-40, ethyl 1-(5-fluoro-2-methoxyphenethyl)-3-(1-(isopropylamino)-2-methyl-1-oxopropan-2-yl)-5-methyl-2,4-dioxo-1,2,3,4-tetrahydrothieno[2,3-d]pyrimidine-6-carboxylate]		2.1 to 4 (≈ 3.94 to 7.5 µM)		0.25 to 1 (≈ 0.468 to 1.87 µM)		2.1 to 4 (≈ 3.94 to 7.5 µM)		10 to 40
CCNC(=O)C(C)(C)n1c(=O)c2c(C)c(C(=O)OCC)sc2n(C[C@H](O)c2cc(F)ccc2OC)c1=O [Compound I-39, ethyl (R)-3-(1-(ethylamino)-2-methyl-1-oxopropan-2-yl)-1-(2-(5-fluoro-2-methoxyphenyl)-2-hydroxyethyl)-5-methyl-2,4-dioxo-1,2,3,4-tetrahydrothieno[2,3-d]pyrimidine-6-carboxylate]		2.1 to 4 (≈ 3.92 to 7.47 µM)		2.1 to 4 (≈ 3.92 to 7.47 µM)		0.25 to 1 (≈ 0.467 to 1.87 µM)		10 to 40
CCNC(=O)C(C)(C)n1c(=O)c2c(C)c(C(=O)OCC)sc2n(C[C@H](OCCC#N)c2ccccc2OC)c1=O [Compound I-32, ethyl (R)-1-(2-(2-cyanoethoxy)-2-(2-methoxyphenyl)ethyl)-3-(1-(ethylamino)-2-methyl-1-oxopropan-2-yl)-5-methyl-2,4-dioxo-1,2,3,4-tetrahydrothieno[2,3-d]pyrimidine-6-carboxylate]		2.1 to 4 (≈ 3.68 to 7.01 µM)		> 4.1		0.25 to 1 (≈ 0.438 to 1.75 µM)		3 to 10
CCOC(=O)c1sc2c(c1C)c(=O)n(C(C)(C)C(=O)N1CCCC1)c(=O)n2C[C@H](OCCC#N)c1cc(F)ccc1OC [Compound I-16, (R)-ethyl 1-(2-(2-cyanoethoxy)-2-(5-fluoro-2-methoxy-phenyl)ethyl)-5-methyl-3-(2-methyl-1-oxo-1-(pyrrolidin-1-yl)propan-2-yl)-2,4-dioxo-1,2,3,4-tetrahydrothieno[2,3-d]pyrimidine-6-carboxylate]	> 4.1	2.1 to 4 (≈ 3.42 to 6.51 µM)	> 4.1	0.25 to 1 (≈ 0.407 to 1.63 µM)	> 4.1	2.1 to 4 (≈ 3.42 to 6.51 µM)	3 to 10	
CCOC(=O)c1sc2c(c1C)c(=O)n(C(C)(C)C(=O)N1CCCC1)c(=O)n2C[C@H](OC(C)C)c1ccccc1OC [Compound I-7, (R)-ethyl 1-(2-isopropoxy-2-(2-methoxyphenyl)ethyl)-5-methyl-3-(2-methyl-1-oxo-1-(pyrrolidin-1-yl)propan-2-yl)-2,4-dioxo-1,2,3,4-tetrahydrothieno[2,3-d]pyrimidine-6-carboxylate]	2.1 to 4 (≈ 3.59 to 6.83 µM)	2.1 to 4 (≈ 3.59 to 6.83 µM)	2.1 to 4 (≈ 3.59 to 6.83 µM)	2.1 to 4 (≈ 3.59 to 6.83 µM)	2.1 to 4 (≈ 3.59 to 6.83 µM)	2.1 to 4 (≈ 3.59 to 6.83 µM)	10 to 40	10 to 40
CCOC(=O)c1sc2c(c1C)c(=O)n([C@H](C)C(=O)NC(C)C)c(=O)n2C[C@H](OCCC#N)c1cc(F)ccc1OC [Compound I-21, ethyl 1-((R)-2-(2-cyanoethoxy)-2-(5-fluoro-2-methoxyphenyl)ethyl)-3-((R)-1-(isopropylamino)-1-oxopropan-2-yl)-5-methyl-2,4-dioxo-1,2,3,4-tetrahydrothieno[2,3-d]pyrimidine-6-carboxylate]		1.1 to 2 (≈ 1.87 to 3.4 µM)		2.1 to 4 (≈ 3.57 to 6.8 µM)		2.1 to 4 (≈ 3.57 to 6.8 µM)		0.3 to 3
CCOC(=O)c1sc2c(c1C)c(=O)n(C(C)(C)C(=O)N1CCOCC1)c(=O)n2C[C@H](OC(C)C)c1ccccc1OC [Compound I-5, (R)-ethyl 1-(2-isopropoxy-2-(2-methoxyphenyl)ethyl)-5-methyl-3-(2-methyl-1-morpholino-1-oxopropan-2-yl)-2,4-dioxo-1,2,3,4-tetrahydrothieno[2,3-d]pyrimidine-6-carboxylate]	> 4.1	> 4.1	> 4.1	2.1 to 4 (≈ 3.49 to 6.65 µM)	> 4.1	2.1 to 4 (≈ 3.49 to 6.65 µM)	10 to 40	10 to 40
CCOC(=O)c1sc2c(c1C)c(=O)n([C@H](C)C(N)=O)c(=O)n2C[C@H](OCCC#N)c1cc(F)ccc1OC [Compound I-26, ethyl 3-((R)-1-amino-1-oxopropan-2-yl)-1-((R)-2-(2-cyanoethoxy)-2-(5-fluoro-2-methoxyphenyl)ethyl)-5-methyl-2,4-dioxo-1,2,3,4-tetrahydrothieno[2,3-d]pyrimidine-6-carboxylate]		2.1 to 4 (≈ 3.84 to 7.32 µM)		> 4.1		0.25 to 1 (≈ 0.457 to 1.83 µM)		3 to 10
CCOC(=O)c1sc2c(c1C)c(=O)n(C(C)(C)C(=O)NC(C)C)c(=O)n2C[C@H](OC[C@@H](C)C#N)c1cc(F)ccc1OC [Compound I-35, ethyl 1-((R)-2-((S)-2-cyanopropoxy)-2-(5-fluoro-2-methoxyphenyl)ethyl)-3-(1-(isopropylamino)-2-methyl-1-oxopropan-2-yl)-5-methyl-2,4-dioxo-1,2,3,4-tetrahydrothieno[2,3-d]pyrimidine-6-carboxylate]		0.25 to 1 (≈ 0.405 to 1.62 µM)		0.25 to 1 (≈ 0.405 to 1.62 µM)		2.1 to 4 (≈ 3.41 to 6.49 µM)		3 to 10
CCOC(=O)c1sc2c(c1C)c(=O)n([C@@H](C)C(=O)NC(C)C)c(=O)n2C[C@H](O)c1cc(F)ccc1OC [Compound I-44, ethyl 1-((R)-2-(5-fluoro-2-methoxyphenyl)-2-hydroxyethyl)-3-((S)-1-(isopropylamino)-1-oxopropan-2-yl)-5-methyl-2,4-dioxo-1,2,3,4-tetrahydrothieno[2,3-d]pyrimidine-6-carboxylate]		2.1 to 4 (≈ 3.92 to 7.47 µM)		2.1 to 4 (≈ 3.92 to 7.47 µM)		2.1 to 4 (≈ 3.92 to 7.47 µM)		≥ 40
CCOC(=O)c1sc2c(c1C)c(=O)n(C(C)(C)C(=O)NC(C)C)c(=O)n2C[C@H](O)c1cc(F)ccc1OC [Compound I-19, (R)-ethyl 1-(2-(5-fluoro-2-methoxyphenyl)-2-hydroxyethyl)-3-(1-(isopropylamino)-2-methyl-1-oxopropan-2-yl)-5-methyl-2,4-dioxo-1,2,3,4-tetrahydrothieno[2,3-d]pyrimidine-6-carboxylate]		0.25 to 1 (≈ 0.455 to 1.82 µM)		2.1 to 4 (≈ 3.82 to 7.28 µM)		0.25 to 1 (≈ 0.455 to 1.82 µM)		3 to 10
